# Measurements reported in patent US20110281802A1, “COMPOSITION FOR TREATMENT AND PREVENTION OF HAIR LOSS AND PREMATURE GRAYING OF HAIR” (Immudiagnostik AG, priority 2007, published 2011).
# Legend:
# Type in all cases: cell-based
# [1] = tested on: human anagen VI hair follicles; experiment: Hair shaft elongation of organ-cultured hair follicles, assay #1 (culture HF 429); conditions: for Hair growth compared with control (in words): p<0.05
# Procedure: (§1) Human anagen VI hair follicles were isolated from scalp skin obtained from three different individuals undergoing routine face-lift surgery. All experiments were performed according to Helsinki guidelines.
# (§2) Hair follicles were isolated as described (Philpott MP et al, Human hair growth in vitro; J Cell Science 1990, 97(Pt 3):463-71). Isolated HFs were maintained in supplemented, serum-free Williams E medium (Biochrom, Cambridge, UK) supplemented with 2 mMol/L L-glutamine (Invitrogen, Paisley, UK), 10 ng/mL hydrocortisone (Sigma-Aldrich, Taufkirchen, Germany), 10 μg/mL insulin (Sigma-Aldrich), and 1% antibiotic/antimycotic mixture (Gibco, Karlsruhe, Germany). Hair follicles were placed in a 24-well plate with 500 μL medium (day 0) and incubated in a CO2-incubator (5% CO2, 37° C.) over night without any treatment. The next day (day 1) medium was exchanged and test substance was added to each well (5 μL of stock solution was added to 495 μL culture medium). The medium or medium with test substance was changed every 48 hours.
# (§3) Assay #1 Culture HF429: Hair follicles were grown in the wells of a microtiter plate (3 follicles per well) and treated for 9 days with culture medium and test substance as indicated in FIG. 1. Thereafter, elongation, melanogenesis and hair cycle stage were determined.
# (§4) Hair shaft length measurements were performed every second day on individual hair follicles using a binocular microscope with an eyepiece measuring reticule. The length of the follicle was defined as the distance between the base of the bulb and the cut end of the hair fibre (Philpott MP et al, Human hair growth in vitro; J Cell Science 1990, 97(Pt 3):463-71).
# (§5) All data were analysed by two-tailed unpaired t-test (SPSS analysis software SPSS Inc., Chicago, USA). For determination of elongation, two outliers at top and bottom end of value range were eliminated; with the measurement of melanogenesis one outlier at both, top and bottom range, was eliminated. Results are given as mean value and standard error of measurement (SEM).
# [2] = tested on: human anagen VI hair follicles; experiment: Hair shaft elongation of organ-cultured hair follicles, assay #2 (culture HF 441)
# Procedure: as §1, §2, §4, §5
# [3] = tested on: human anagen VI hair follicles; experiment: Hair shaft elongation of organ-cultured hair follicles, assay #3 (culture HF 446)
# Procedure: as §1, §2
# Assay #3 Culture HF 446: Eight hair follicle cultures (3 follicles/well) were treated with various concentration of test substance as described for 2 days, followed by snap freezing and sectioning of two wells. Six wells were treated up to 9 days, then snap frozen and sectioned. The distribution of test substances and concentrations were as indicted in FIG. 3. The parameter measured after two days was proliferation/apoptosis, and the parameters measured after 9 days were elongation, proportion of cells in proliferation/apoptosis, and hair cycle stage
# as §4, §5
# [4] = tested on: human anagen VI hair follicles; experiment: Melanogenesis, Fontana Masson staining measured by Image J, assay #1; conditions: for Mean relative darkening of the groups (measured by image J), Mean: 9 days, dark=small index number, light=high index number
# Procedure: as §3
# Fontana Masson staining was performed at the end of the culture period and photos taken of snap frozen sections. The photos were analysed (Image J, public domain, developed at the National Institutes of Health, USA) by measuring the density of two squares, consisting of 150×150 dots, placed over the darkest areas on both sides of the dermal papilla. For Fontana-Masson staining, fixed sections were treated in darkness for 40 minutes with a solution containing 10% silver nitrate (Merck & Co., Inc., Whitehouse Station, N.J., USA; CatNo 1.01512.0100), following by a development in solution containing 5% sodium thiosulphate (Merck & Co., Inc.; CatNo 1.06512.2500) for 1 minute and multiple washings in distilled water for 3 minutes. Counterstaining with 0.5% Neutralrot (Chroma Muenster, Germany, CatNo 2E038). Then dehydration in xylol and covering with Eukitt (O. Kindler GmbH, Freiburg, Germany; CatNo E115).
# as §5
# Micro-dissected anagen VI hair follicles were treated as above described. At the end of the culture period Fontana Masson staining was performed and photos were taken of the snap frozen sections. The pictures were analysed by measuring the darkness (brightness) of two squares, consisting of 150×150 dots, placed over the darkest areas on both sides of the dermal papilla (dark=small index number, light=high index number). The shading of the different groups was compared to each other and the results were analysed using Student's t-test. The results are shown below in Table 5 and FIG. 7.
# [5] = tested on: human hair follicles; experiment: Hair cycle staging of cultured hair follicles (assays #1, #2, #3)
# Procedure: (§6) Photodocuments from the Fontana Masson staining were used for hair follicle staging according to previously well-defined morphological criteria (Stenn K S et al, Controls of Hair Follicle Cycling; Physiol Rev 2001, 81:449-494, Müller-Röver S et al, A Comprehensive Guide for the Accurate Classification of Murine Hair Follicles in Distinct Hair Cycle Stages; J Invest Dermatol 2001, 117:3-15). The percentage of hair follicles in anagen, early, mid and late catagen was determined.
# as §6, with “determined in the different assays.” for “determined.”
substance,measurement,setting,value
thymulin,Mean elongation with thymulin in percent compared to day 0,"[1]; 10 pg/mL, Day 0",0%
same,Mean elongation with thymulin in percent compared to day 0,"[1]; 10 pg/mL, Day 1",13.19%
same,Mean elongation with thymulin in percent compared to day 0,"[1]; 10 pg/mL, Day 3",37.58%
same,Mean elongation with thymulin in percent compared to day 0,"[1]; 10 pg/mL, Day 5",64.05%
same,Mean elongation with thymulin in percent compared to day 0,"[1]; 10 pg/mL, Day 7",75.10%
same,Mean elongation with thymulin in percent compared to day 0,"[1]; 10 pg/mL, Day 9",90.98%
same,Mean elongation with thymulin in percent compared to day 0,"[1]; 100 pg/mL, Day 0",0%
same,Mean elongation with thymulin in percent compared to day 0,"[1]; 100 pg/mL, Day 1",11.33%
same,Mean elongation with thymulin in percent compared to day 0,"[1]; 100 pg/mL, Day 3",31.50%
same,Mean elongation with thymulin in percent compared to day 0,"[1]; 100 pg/mL, Day 5",53.75%
same,Mean elongation with thymulin in percent compared to day 0,"[1]; 100 pg/mL, Day 7",68.76%
same,Mean elongation with thymulin in percent compared to day 0,"[1]; 100 pg/mL, Day 9",83.13%
same,Hair growth compared with control (in words),[1]; 100 pg/mL,significant lack of hair growth
same,Mean elongation in % compared to day 0,"[2]; 10 pg/mL, Day 3",20.86%
same,Mean elongation in % compared to day 0,"[2]; 10 pg/mL, Day 5",34.97%
same,Mean elongation in % compared to day 0,"[2]; 10 pg/mL, Day 7",43.26%
same,Mean elongation in % compared to day 0,"[2]; 10 pg/mL, Day 9",58.90%
same,Mean elongation in % compared to day 0,"[2]; 10 pg/mL, Day O",0%
same,Mean elongation in % compared to day 0,"[3]; 10 pg/mL, Day 0",0%
same,Mean elongation in % compared to day 0,"[3]; 10 pg/mL, Day 1",7.30%
same,Mean elongation in % compared to day 0,"[3]; 10 pg/mL, Day 3",45.35%
same,Mean elongation in % compared to day 0,"[3]; 10 pg/mL, Day 5",58.41%
same,Mean elongation in % compared to day 0,"[3]; 10 pg/mL, Day 7",67.70%
same,Mean elongation in % compared to day 0,"[3]; 10 pg/mL, Day 9",78.70%
same,Mean elongation in % compared to day 0,"[3]; 100 pg/mL, Day 0",0%
same,Mean elongation in % compared to day 0,"[3]; 100 pg/mL, Day 1",5.86%
same,Mean elongation in % compared to day 0,"[3]; 100 pg/mL, Day 3",40.11%
same,Mean elongation in % compared to day 0,"[3]; 100 pg/mL, Day 5",62.88%
same,Mean elongation in % compared to day 0,"[3]; 100 pg/mL, Day 7",80.67%
same,Mean elongation in % compared to day 0,"[3]; 100 pg/mL, Day 9",94.36%
same,Fontana Masson staining (melanin) compared with control group (in words),[4]; 10 pg/mL,significantly more staining
same,"Mean relative darkening of the groups (measured by image J), Mean",[4]; 10 pg/mL,75.73
same,"Mean relative darkening of the groups (measured by image J), Mean",[4]; 100 pg/mL,90.48
same,Proportion of HFs in anagen compared with control groups (in words),"[5]; 10 pg and 100 pg/mL, three assays, 9-day treatment",consistently a higher proportion of HFs in anagen than control groups
Thymosin beta-4 [TB4],Mean elongation in % compared to day 1,"[1]; 100 ng/mL, Day 0",0.00%
same,Mean elongation in % compared to day 1,"[1]; 100 ng/mL, Day 1",12.26%
same,Mean elongation in % compared to day 1,"[1]; 100 ng/mL, Day 3",35.49%
same,Mean elongation in % compared to day 1,"[1]; 100 ng/mL, Day 5",49.79%
same,Mean elongation in % compared to day 1,"[1]; 100 ng/mL, Day 7",61.36%
same,Mean elongation in % compared to day 1,"[1]; 100 ng/mL, Day 9",74.11%
same,Hair growth compared with control (in words),[1]; 100 ng/mL,significant lack of hair growth
same,Mean elongation in % compared to day 1,"[1]; 1000 ng/mL, Day 0",0.00%
same,Mean elongation in % compared to day 1,"[1]; 1000 ng/mL, Day 1",14.20%
same,Mean elongation in % compared to day 1,"[1]; 1000 ng/mL, Day 3",39.31%
same,Mean elongation in % compared to day 1,"[1]; 1000 ng/mL, Day 5",66.20%
same,Mean elongation in % compared to day 1,"[1]; 1000 ng/mL, Day 7",90.23%
same,Mean elongation in % compared to day 1,"[1]; 1000 ng/mL, Day 9",103.17%
same,Mean elongation in % compared to day 0,"[2]; 100 ng/mL, Day 3",19.35%
same,Mean elongation in % compared to day 0,"[2]; 100 ng/mL, Day 5",31.66%
same,Mean elongation in % compared to day 0,"[2]; 100 ng/mL, Day 7",41.77%
same,Mean elongation in % compared to day 0,"[2]; 100 ng/mL, Day 9",49.94%
same,Mean elongation in % compared to day 0,"[2]; 100 ng/mL, Day O",0%
same,Mean elongation in % compared to day 0,"[2]; 1000 ng/mL, Day 3",21.68%
same,Mean elongation in % compared to day 0,"[2]; 1000 ng/mL, Day 5",32.59%
same,Mean elongation in % compared to day 0,"[2]; 1000 ng/mL, Day 7",37.48%
same,Mean elongation in % compared to day 0,"[2]; 1000 ng/mL, Day 9",43.30%
same,Mean elongation in % compared to day 0,"[2]; 1000 ng/mL, Day O",0%
same,Mean elongation in % compared to day 0,"[3]; 100 ng/mL, Day 0",0%
same,Mean elongation in % compared to day 0,"[3]; 100 ng/mL, Day 1",5.91%
same,Mean elongation in % compared to day 0,"[3]; 100 ng/mL, Day 3",42.55%
same,Mean elongation in % compared to day 0,"[3]; 100 ng/mL, Day 5",59.58%
same,Mean elongation in % compared to day 0,"[3]; 100 ng/mL, Day 7",73.62%
same,Mean elongation in % compared to day 0,"[3]; 100 ng/mL, Day 9",83.13%
same,Mean elongation in % compared to day 0,"[3]; 1000 ng/mL, Day 0",0%
same,Mean elongation in % compared to day 0,"[3]; 1000 ng/mL, Day 1",8.28%
same,Mean elongation in % compared to day 0,"[3]; 1000 ng/mL, Day 3",39.17%
same,Mean elongation in % compared to day 0,"[3]; 1000 ng/mL, Day 5",53.52%
same,Mean elongation in % compared to day 0,"[3]; 1000 ng/mL, Day 7",65.51%
same,Mean elongation in % compared to day 0,"[3]; 1000 ng/mL, Day 9",70.08%
same,Rate of hair growth compared with control (in words),"[3]; 1000 ng/mL, p<0.05",significantly lowered rate of hair growth
same,"Mean relative darkening of the groups (measured by image J), Mean",[4]; 100 ng/mL,101.04
same,"Mean relative darkening of the groups (measured by image J), Mean",[4]; 1000 ng/mL,85.52
same,Influence on HF melanogenesis (in words),[4]; quantitative Masson-Fontana histochemistry,did not influence HF melanogenesis
same,Proportion in catagen compared to control (in words),"[5]; 100 ng, Assay #1 and #3",higher proportion of cells in catagen compared to control
same,Proportion in the stage of anagen compared with controls (in words),"[5]; 1000 ng/mL, after nine days",consistently more cells in the stage of anagen
